Measurements published in PubChem BioAssay (NCI).
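The concentration for 50% growth inhibition is given as GI50. TGI: concentration producing complete growth inhibition.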

Columns and labels:
Assay in all cases: NCI tumour cell line growth inhibition, 384-well format
CAKI-1 renal = test system: CAKI-1 renal
EKVX NSCLC = test system: EKVX NSCLC
HS 578T breast = test system: HS 578T breast
LOX IMVI melanoma = test system: LOX IMVI melanoma
M14 melanoma = test system: M14 melanoma
MDA-MB-435 melanoma = test system: MDA-MB-435 melanoma
MOLT-4 leukemia = test system: MOLT-4 leukemia
NCI-H522 lung = test system: NCI-H522 lung
OVCAR-3 ovarian = test system: OVCAR-3 ovarian
SK-MEL-2 melanoma = test system: SK-MEL-2 melanoma
SK-OV-3 ovarian = test system: SK-OV-3 ovarian
T-47D breast = test system: T-47D breast
U251 glioblastoma = test system: U251 glioblastoma

**Q.** How did the GI50 (CAKI-1 renal) turn out when `C[C@@H]1Cc2c(ccc3[nH]ncc23)[C@@H](c2ccc(NC3CN(CCCF)C3)cn2)N1CC(F)(F)F` was run?
**A.** 13.7 µM

**Q.** What about the TGI (CAKI-1 renal) of the same compound?
**A.** 26.7 µM

**Q.** What about the GI50 (EKVX NSCLC) of the same compound?
**A.** 13.8 µM

**Q.** What about the TGI (EKVX NSCLC) of the same compound?
**A.** 27.7 µM

**Q.** What about the GI50 (HS 578T breast) of the same compound?
**A.** 13 µM

**Q.** And the TGI (HS 578T breast)?
**A.** 25.7 µM

**Q.** What about the GI50 (LOX IMVI melanoma) of the same compound?
**A.** 15.8 µM

**Q.** What about the TGI (LOX IMVI melanoma) of the same compound?
**A.** 29.3 µM

**Q.** And the GI50 (M14 melanoma)?
**A.** 16.3 µM

**Q.** What about the TGI (M14 melanoma) of the same compound?
**A.** 29.9 µM

**Q.** What about the GI50 (MDA-MB-435 melanoma) of the same compound?
**A.** 16.8 µM

**Q.** And the TGI (MDA-MB-435 melanoma)?
**A.** 30.6 µM

**Q.** And the GI50 (MOLT-4 leukemia)?
**A.** 3.09 µM

**Q.** And the TGI (MOLT-4 leukemia)?
**A.** 12.8 µM

**Q.** What about the GI50 (NCI-H522 lung) of the same compound?
**A.** 11.9 µM

**Q.** And the TGI (NCI-H522 lung)?
**A.** 24.3 µM

**Q.** And the GI50 (OVCAR-3 ovarian)?
**A.** 14.5 µM

**Q.** What about the TGI (OVCAR-3 ovarian) of the same compound?
**A.** 27.7 µM

**Q.** And the GI50 (SK-MEL-2 melanoma)?
**A.** 15.8 µM

**Q.** What about the TGI (SK-MEL-2 melanoma) of the same compound?
**A.** 29.2 µM

**Q.** And the GI50 (SK-OV-3 ovarian)?
**A.** 17.5 µM

**Q.** What about the TGI (SK-OV-3 ovarian) of the same compound?
**A.** 31.4 µM

**Q.** And the GI50 (T-47D breast)?
**A.** 10.9 µM

**Q.** And the TGI (T-47D breast)?
**A.** 22.9 µM

**Q.** And the GI50 (U251 glioblastoma)?
**A.** 15 µM

**Q.** And the TGI (U251 glioblastoma)?
**A.** 28.4 µM
